Test results as given in the supplement of paper PMC10307832.

Tests used:
Assay in all cases: relative viability (nuclei count vs DMSO), 5 days (fraction); higher = more cells survive
Avagacestat + Phenformin = compound: NC(=O)[C@@H](CCC(F)(F)F)N(Cc1ccc(-c2ncon2)cc1F)S(=O)(=O)c1ccc(Cl)cc1 [Avagacestat] + N=C(N)NC(=N)NCCc1ccccc1 [Phenformin] (partner 250 µM)
How it was run: (§1)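 Lung cancer cell lines were seeded in 1536-well plates and dosed by pin tool the next day, with either a single drug or a fixed anchor-drug dose combined with five library-drug doses (not always all listed) spaced in √10 steps. Five days later, one step fixed the cells and stained their nuclei (final 0.05% Triton X-100, 1% formaldehyde, 1 ug/ml Hoechst), and nuclei were counted on 4× images. Relative viability is the nuclei count in treated wells divided by the count in vehicle wells, and each value is the median of duplicate plates.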

Avagacestat + Pemetrexed = compound: NC(=O)[C@@H](CCC(F)(F)F)N(Cc1ccc(-c2ncon2)cc1F)S(=O)(=O)c1ccc(Cl)cc1 [Avagacestat] + Nc1nc2[nH]cc(CCc3ccc(C(=O)N[C@@H](CCC(=O)O)C(=O)O)cc3)c2c(=O)[nH]1 [Pemetrexed] (partner 0.2 µM)
How it was run: as §1

Avagacestat + Dasatinib = compound: NC(=O)[C@@H](CCC(F)(F)F)N(Cc1ccc(-c2ncon2)cc1F)S(=O)(=O)c1ccc(Cl)cc1 [Avagacestat] + Cc1nc(Nc2ncc(C(=O)Nc3c(C)cccc3Cl)s2)cc(N2CCN(CCO)CC2)n1 [Dasatinib] (partner 0.075 µM)
How it was run: as §1

Avagacestat + Tozasertib = compound: NC(=O)[C@@H](CCC(F)(F)F)N(Cc1ccc(-c2ncon2)cc1F)S(=O)(=O)c1ccc(Cl)cc1 [Avagacestat] + Cc1cc(Nc2cc(N3CCN(C)CC3)nc(Sc3ccc(NC(=O)C4CC4)cc3)n2)n[nH]1 [Tozasertib] (partner 0.1 µM)
How it was run: as §1

Avagacestat + Vorinostat = compound: NC(=O)[C@@H](CCC(F)(F)F)N(Cc1ccc(-c2ncon2)cc1F)S(=O)(=O)c1ccc(Cl)cc1 [Avagacestat] + O=C(CCCCCCC(=O)Nc1ccccc1)NO [Vorinostat] (partner 1 µM)
How it was run: as §1

Avagacestat + Olaparib = compound: NC(=O)[C@@H](CCC(F)(F)F)N(Cc1ccc(-c2ncon2)cc1F)S(=O)(=O)c1ccc(Cl)cc1 [Avagacestat] + O=C(c1cc(Cc2n[nH]c(=O)c3ccccc23)ccc1F)N1CCN(C(=O)C2CC2)CC1 [Olaparib] (partner 8 µM)
How it was run: as §1

Avagacestat + Foretinib = compound: NC(=O)[C@@H](CCC(F)(F)F)N(Cc1ccc(-c2ncon2)cc1F)S(=O)(=O)c1ccc(Cl)cc1 [Avagacestat] + COc1cc2c(Oc3ccc(NC(=O)C4(C(=O)Nc5ccc(F)cc5)CC4)cc3F)ccnc2cc1OCCCN1CCOCC1 [Foretinib] (partner 0.25 µM)
How it was run: as §1

[1] = compound: NC(=O)[C@@H](CCC(F)(F)F)N(Cc1ccc(-c2ncon2)cc1F)S(=O)(=O)c1ccc(Cl)cc1 [Avagacestat] + CC(=O)c1c(C)c2cnc(Nc3ccc(N4CCNCC4)cn3)nc2n(C2CCCC2)c1=O [Palbociclib] (partner 0.5 µM)
How it was run: as §1

Avagacestat + OSI-027 = compound: NC(=O)[C@@H](CCC(F)(F)F)N(Cc1ccc(-c2ncon2)cc1F)S(=O)(=O)c1ccc(Cl)cc1 [Avagacestat] + COc1cccc2cc(-c3nc([C@H]4CC[C@H](C(=O)O)CC4)n4ncnc(N)c34)[nH]c12 [OSI-027] (partner 0.5 µM)
How it was run: as §1

Avagacestat + Luminespib = compound: NC(=O)[C@@H](CCC(F)(F)F)N(Cc1ccc(-c2ncon2)cc1F)S(=O)(=O)c1ccc(Cl)cc1 [Avagacestat] + CCNC(=O)c1noc(-c2cc(C(C)C)c(O)cc2O)c1-c1ccc(CN2CCOCC2)cc1 [Luminespib] (partner 0.01 µM)
How it was run: as §1

Avagacestat + AZD7762 = compound: NC(=O)[C@@H](CCC(F)(F)F)N(Cc1ccc(-c2ncon2)cc1F)S(=O)(=O)c1ccc(Cl)cc1 [Avagacestat] + NC(=O)Nc1cc(-c2cccc(F)c2)sc1C(=O)N[C@H]1CCCNC1 [AZD7762] (partner 0.2 µM)
How it was run: as §1

Avagacestat + Trametinib = compound: NC(=O)[C@@H](CCC(F)(F)F)N(Cc1ccc(-c2ncon2)cc1F)S(=O)(=O)c1ccc(Cl)cc1 [Avagacestat] + CC(=O)Nc1cccc(-n2c(=O)n(C3CC3)c(=O)c3c(Nc4ccc(I)cc4F)n(C)c(=O)c(C)c32)c1 [Trametinib] (partner 0.02 µM)
How it was run: as §1

Avagacestat + Decitabine = compound: NC(=O)[C@@H](CCC(F)(F)F)N(Cc1ccc(-c2ncon2)cc1F)S(=O)(=O)c1ccc(Cl)cc1 [Avagacestat] + Nc1ncn([C@H]2C[C@H](O)[C@@H](CO)O2)c(=O)n1 [Decitabine] (partner 2 µM)
How it was run: as §1

Avagacestat = compound: NC(=O)[C@@H](CCC(F)(F)F)N(Cc1ccc(-c2ncon2)cc1F)S(=O)(=O)c1ccc(Cl)cc1 [Avagacestat]
How it was run: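 Hoechst staining, done together with fixation and permeabilisation, marked nuclei for 4× imaging and MetaXpress counting. This followed 5 days without medium change after lung cancer cell lines, kept overnight at 37 °C in 1536-well plates, were pinned with five library-drug doses (not always all listed) spaced by √10 on vehicle-anchored plates. Viability is the ratio of treated-well to vehicle-well nuclei, expressed as a median across plates. Plates passed only at control CV below 25% with at least one doubling.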

SW 900
relative viability (Avagacestat + Phenformin; first compound 0.08 µM): 0.781
relative viability (Avagacestat + Phenformin; first compound 0.253 µM): 0.641
relative viability (Avagacestat + Phenformin; first compound 0.8 µM): 0.543
relative viability (Avagacestat + Phenformin; first compound 2.53 µM): 0.571
relative viability (Avagacestat + Phenformin; first compound 8 µM): 0.627
relative viability (Avagacestat + Pemetrexed; first compound 0.08 µM): 0.485
relative viability (Avagacestat + Pemetrexed; first compound 0.253 µM): 0.507
relative viability (Avagacestat + Pemetrexed; first compound 0.8 µM): 0.474
relative viability (Avagacestat + Pemetrexed; first compound 2.53 µM): 0.486
relative viability (Avagacestat + Pemetrexed; first compound 8 µM): 0.482
relative viability (Avagacestat + Dasatinib; first compound 0.08 µM): 0.821
relative viability (Avagacestat + Dasatinib; first compound 0.253 µM): 0.599
relative viability (Avagacestat + Dasatinib; first compound 0.8 µM): 0.547
relative viability (Avagacestat + Dasatinib; first compound 2.53 µM): 0.848
relative viability (Avagacestat + Dasatinib; first compound 8 µM): 0.558
relative viability (Avagacestat + Tozasertib; first compound 0.08 µM): 0.726
relative viability (Avagacestat + Tozasertib; first compound 0.253 µM): 0.637
relative viability (Avagacestat + Tozasertib; first compound 0.8 µM): 0.578
relative viability (Avagacestat + Tozasertib; first compound 2.53 µM): 0.487
relative viability (Avagacestat + Tozasertib; first compound 8 µM): 0.353
relative viability (Avagacestat + Vorinostat; first compound 0.08 µM): 0.502
relative viability (Avagacestat + Vorinostat; first compound 0.253 µM): 0.828
relative viability (Avagacestat + Vorinostat; first compound 0.8 µM): 0.554
relative viability (Avagacestat + Vorinostat; first compound 2.53 µM): 0.535
relative viability (Avagacestat + Vorinostat; first compound 8 µM): 0.641
relative viability (Avagacestat + Olaparib; first compound 0.08 µM): 1.04
relative viability (Avagacestat + Olaparib; first compound 0.253 µM): 0.96
relative viability (Avagacestat + Olaparib; first compound 0.8 µM): 0.982
relative viability (Avagacestat + Olaparib; first compound 2.53 µM): 0.634
relative viability (Avagacestat + Olaparib; first compound 8 µM): 0.896
relative viability (Avagacestat + Foretinib; first compound 0.08 µM): 1.38
relative viability (Avagacestat + Foretinib; first compound 0.253 µM): 1.32
relative viability (Avagacestat + Foretinib; first compound 0.8 µM): 0.967
relative viability (Avagacestat + Foretinib; first compound 2.53 µM): 0.612
relative viability (Avagacestat + Foretinib; first compound 8 µM): 1.2
relative viability ([1]; first compound 0.08 µM): 0.627
relative viability ([1]; first compound 0.253 µM): 0.618
relative viability ([1]; first compound 0.8 µM): 0.645
relative viability ([1]; first compound 2.53 µM): 0.453
relative viability ([1]; first compound 8 µM): 0.505
relative viability (Avagacestat + OSI-027; first compound 0.08 µM): 0.756
relative viability (Avagacestat + OSI-027; first compound 0.253 µM): 0.731
relative viability (Avagacestat + OSI-027; first compound 0.8 µM): 0.581
relative viability (Avagacestat + OSI-027; first compound 2.53 µM): 0.573
relative viability (Avagacestat + OSI-027; first compound 8 µM): 0.653
relative viability (Avagacestat + Luminespib; first compound 0.08 µM): 0.176
relative viability (Avagacestat + Luminespib; first compound 0.253 µM): 0.168
relative viability (Avagacestat + Luminespib; first compound 0.8 µM): 0.173
relative viability (Avagacestat + Luminespib; first compound 2.53 µM): 0.153
relative viability (Avagacestat + Luminespib; first compound 8 µM): 0.177
relative viability (Avagacestat + AZD7762; first compound 0.08 µM): 0.847
relative viability (Avagacestat + AZD7762; first compound 0.253 µM): 0.807
relative viability (Avagacestat + AZD7762; first compound 0.8 µM): 0.606
relative viability (Avagacestat + AZD7762; first compound 2.53 µM): 0.571
relative viability (Avagacestat + AZD7762; first compound 8 µM): 0.466
relative viability (Avagacestat + Trametinib; first compound 0.08 µM): 1.08
relative viability (Avagacestat + Trametinib; first compound 0.253 µM): 0.82
relative viability (Avagacestat + Trametinib; first compound 0.8 µM): 0.872
relative viability (Avagacestat + Trametinib; first compound 2.53 µM): 0.763
relative viability (Avagacestat + Trametinib; first compound 8 µM): 0.713
relative viability (Avagacestat + Decitabine; first compound 0.08 µM): 0.376
relative viability (Avagacestat + Decitabine; first compound 0.253 µM): 0.401
relative viability (Avagacestat + Decitabine; first compound 0.8 µM): 0.422
relative viability (Avagacestat + Decitabine; first compound 2.53 µM): 0.464
relative viability (Avagacestat + Decitabine; first compound 8 µM): 0.41
relative viability (Avagacestat; 0.08 µM): 1.07
relative viability (Avagacestat; 0.253 µM): 1.04
relative viability (Avagacestat; 0.8 µM): 1.06
relative viability (Avagacestat; 2.53 µM): 0.967
relative viability (Avagacestat; 8 µM): 0.979
